Legend:
[1] = test system: POLCO; assay: Post-emergence action at 320 g/ha against POLCO; format: in vivo, Fallopia convolvulus (Polygonum convolvulus); conditions: visual rating about 3 weeks after treatment vs untreated controls
Text: (§1) Accordingly, the compounds of the invention have good herbicidal action against a broad spectrum of weed grasses and broad-leaved weeds and are therefore suitable for controlling unwanted vegetation by the post-emergence method. • b) Seeds of monocotyledonous and dicotyledonous weeds and crop plants are placed in sandy loam in plastic or organic planting pots, covered with soil and cultivated in a greenhouse under controlled growth conditions. 2 to 3 weeks after sowing, the test plants are treated at the one-leaf stage. The compounds of the invention, formulated in the form of wettable powders (WP) or as emulsion concentrates (EC), are then sprayed onto the green parts of the plants as aqueous suspension or emulsion with addition of 0.5% additive at a water application rate of 600 l/ha (converted). After the test plants have been kept in the greenhouse under optimum growth conditions for about 3 weeks, the activity of the preparations is rated visually in comparison to untreated controls. For example, 100% activity=the plants have died, 0% activity=like control plants. Tables 39 to 49 below show the effects of selected compounds of the general formula (I) according to Tables 1 and 2 on various harmful plants and at an application rate corresponding to 320 g/ha, which were obtained by the experimental procedure mentioned above.

[2] = test system: ABUTH; assay: Post-emergence action at 320 g/ha against ABUTH; format: in vivo, Abutilon theophrasti; conditions: visual rating about 3 weeks after treatment vs untreated controls
Text: as §1

[3] = test system: DIGSA; assay: Post-emergence action at 320 g/ha against DIGSA; format: in vivo, Digitaria sanguinalis; conditions: dosage 320 g/ha, visual rating about 3 weeks after treatment vs untreated controls (100% = plants died)
Text: as §1

[4] = test system: ALOMY; assay: Pre-emergence action at 320 g/ha against ALOMY; format: in vivo, Alopecurus myosuroides; conditions: scored visually after about 3 weeks vs untreated controls (100% = plants have died)
Method in brief: (§2)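 Weed and crop seeds sown in pots and covered with soil; WP or EC formulations sprayed pre-emergence onto the soil surface at 320 g/ha with 0.5% additive in 600 l/ha water. Kept in greenhouse; after about 3 weeks activity scored visually as % versus untreated controls (100% = plants dead, 0% = as control).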

[5] = test system: VIOTR; assay: Post-emergence action at 320 g/ha against VIOTR; format: in vivo, Viola tricolor; conditions: visual rating about 3 weeks after treatment vs untreated controls
Text: as §1

[6] = test system: PHBPU; assay: Post-emergence action at 320 g/ha against PHBPU; format: in vivo; conditions: visual rating about 3 weeks after treatment vs untreated controls
Text: as §1

[7] = test system: LOLRI; assay: Pre-emergence action at 320 g/ha against LOLRI; format: in vivo, Lolium rigidum; conditions: visual scoring after about 3 weeks vs untreated controls
Method in brief: as §2

[8] = test system: POLCO; assay: Pre-emergence action at 320 g/ha against POLCO; format: in vivo, Fallopia convolvulus (Polygonum convolvulus); conditions: visual scoring after about 3 weeks vs untreated controls
Method in brief: as §2

[9] = test system: DIGSA; assay: Pre-emergence action at 320 g/ha against DIGSA; format: in vivo, Digitaria sanguinalis; conditions: visual scoring after about 3 weeks vs untreated controls
Method in brief: as §2

[10] = test system: VIOTR; assay: Pre-emergence action at 320 g/ha against VIOTR; format: in vivo, Viola tricolor; conditions: dosage 320 g/ha
Method in brief: as §2

[11] = test system: ECHGC; assay: Pre-emergence action at 320 g/ha against ECHGC; format: in vivo, Echinochloa crus-galli; conditions: visual scoring after about 3 weeks vs untreated controls
Method in brief: as §2

[12] = test system: AMARE; assay: Post-emergence action at 320 g/ha against AMARE; format: in vivo, Amaranthus retroflexus; conditions: visual rating about 3 weeks after treatment vs untreated controls
Text: as §1

[13] = test system: ECHCG; assay: Post-emergence action at 320 g/ha against ECHCG; format: in vivo, Echinochloa crus-galli; conditions: dosage 320 g/ha, visual rating about 3 weeks after treatment vs untreated controls (100% = plants died)
Text: as §1

[14] = test system: VERPE; assay: Pre-emergence action at 320 g/ha against VERPE; format: in vivo, Veronica persica; conditions: visual scoring after about 3 weeks vs untreated controls
Method in brief: as §2

[15] = test system: AMARE; assay: Pre-emergence action at 320 g/ha against AMARE; format: in vivo, Amaranthus retroflexus; conditions: visual scoring after about 3 weeks vs untreated controls
Method in brief: as §2

[16] = test system: ALOMY; assay: Post-emergence action against ALOMY, 320 g/ha; format: in vivo, Alopecurus myosuroides; conditions: dosage 320 g/ha, visual rating about 3 weeks after treatment vs untreated controls (100% = plants died)
Method in brief: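 Herbicidal effect is scored by eye about 3 weeks after a foliar spray and expressed as percent activity, with untreated plants as 0% and dead plants as 100%. Treatment is applied at the one-leaf stage of greenhouse-grown, soil-sown plants, at a water rate of 600 l/ha containing 0.5% additive.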

[17] = test system: SETVI; assay: Post-emergence action at 320 g/ha against SETVI; format: in vivo, Setaria viridis; conditions: visual rating about 3 weeks after treatment vs untreated controls
Text: as §1

[18] = test system: AVEFA; assay: Pre-emergence action at 320 g/ha against AVEFA; format: in vivo; conditions: visual scoring after about 3 weeks vs untreated controls
Method in brief: as §2

[19] = test system: SETVI; assay: Pre-emergence action at 320 g/ha against SETVI; format: in vivo, Setaria viridis; conditions: visual scoring after about 3 weeks vs untreated controls
Method in brief: as §2

[20] = test system: AVEFA; assay: Post-emergence action at 320 g/ha against AVEFA; format: in vivo; conditions: visual rating about 3 weeks after treatment vs untreated controls
Text: as §1

[21] = test system: MATIN; assay: Pre-emergence action at 320 g/ha against MATIN; format: in vivo, Tripleurospermum inodorum (Matricaria inodora); conditions: visual scoring after about 3 weeks vs untreated controls
Method in brief: as §2

[22] = test system: ABUTH; assay: Pre-emergence action at 320 g/ha against ABUTH; format: in vivo, Abutilon theophrasti; conditions: greenhouse, scored visually after about 3 weeks vs untreated controls, 100% = plants have died, 0% = like control plants
Text: b) Seeds of monocotyledonous and dicotyledonous weed plants and crop plants are placed in plastic or organic planting pots and covered with soil. The compounds of the invention, formulated in the form of wettable powders (WP) or as emulsion concentrates (EC), are then applied onto the surface of the covering soil as aqueous suspension or emulsion with addition of 0.5% additive at a water application rate of 600 l/ha (converted). After the treatment, the pots are placed in a greenhouse and kept under good growth conditions for the trial plants. After about 3 weeks, the effect of the preparations is scored visually in comparison with untreated controls as percentages. For example, 100% activity=the plants have died, 0% activity=like control plants. Tables 13 to 26 below show the effects of selected compounds of the general formula (I) on various harmful plants and at an application rate corresponding to 320 g/ha, which were obtained by the experimental procedure mentioned above.

Row | Compound | Pre-emergence action at 320 g/ha against ALOMY in % [4] [%] | Pre-emergence action against LOLRI in % [7] [%] | Pre-emergence action against POLCO in % [8] [%] | Pre-emergence action against DIGSA in % [9] [%] | Pre-emergence action against VIOTR in % [10] [%] | Pre-emergence action against ECHGC in % [11] [%] | Pre-emergence action against VERPE in % [14] [%] | Pre-emergence action against AMARE in % [15] [%] | Pre-emergence action against AVEFA in % [18] [%] | Pre-emergence action against SETVI in % [19] [%] | Pre-emergence action against MATIN in % [21] [%] | Pre-emergence action at 320 g/ha against ABUTH in % [22] [%] | also measured
1 | CCOC(=O)COc1nn(-c2ccccc2F)c(-c2ccc(F)nc2)c1F [VII-034] | 90 | 90 | 90 | 100 | 100 | 90 | 80 | 100 | 90 | 100 |  |  | Post-emergence action against POLCO in % [1]: 80%; Post-emergence action against ABUTH in % [2]: 80%; Post-emergence action at 320 g/ha against DIGSA in % [3]: 90%; Post-emergence action against VIOTR in % [5]: 80%; Post-emergence action against PHBPU in % [6]: 90%; Post-emergence action against AMARE in % [12]: 80%; Post-emergence action at 320 g/ha against ECHCG in % [13]: 90%; Post-emergence action against ALOMY [16]: 90%; Post-emergence action against SETVI in % [17]: 90%; Post-emergence action against AVEFA in % [20]: 90%
2 | CCOC(=O)[C@@H](C)Oc1nn(-c2ccccc2F)c(-c2cncc(F)c2)c1Br [VII-130] | 100 | 100 | 100 | 100 | 100 | 90 | 100 | 100 | 90 | 100 | 100 | 90 | 
3 | C[C@@H](Oc1nn(-c2cc(F)ccc2F)c(-c2cncc(F)c2)c1Br)C(=O)O [VII-137] | 100 | 100 | 90 |  | 100 | 90 | 100 | 100 | 90 | 100 | 90 | 90 | 
